Calls of active or inactive are those of the source.
Tests used:
[1] = tested on: Streptococcus sp. 'group A'; assay: growth inhibition of control SK(-) GAS strain, dose response, counter-screen for streptokinase expression inhibitor project, luminescence, kanamycin, BacTiterGlo, confirmation (AID 1900); format: functional, organism-based
Cysteine protease ATG4B = target: T1, Cysteine protease ATG4B (Homo sapiens, UniProt Q9Y4P1); format: functional;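 also: Fluorescence-based dose-response confirmation assay measuring inhibition of ATG4B activity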
T1 sequence (Q9Y4P1 whole entry): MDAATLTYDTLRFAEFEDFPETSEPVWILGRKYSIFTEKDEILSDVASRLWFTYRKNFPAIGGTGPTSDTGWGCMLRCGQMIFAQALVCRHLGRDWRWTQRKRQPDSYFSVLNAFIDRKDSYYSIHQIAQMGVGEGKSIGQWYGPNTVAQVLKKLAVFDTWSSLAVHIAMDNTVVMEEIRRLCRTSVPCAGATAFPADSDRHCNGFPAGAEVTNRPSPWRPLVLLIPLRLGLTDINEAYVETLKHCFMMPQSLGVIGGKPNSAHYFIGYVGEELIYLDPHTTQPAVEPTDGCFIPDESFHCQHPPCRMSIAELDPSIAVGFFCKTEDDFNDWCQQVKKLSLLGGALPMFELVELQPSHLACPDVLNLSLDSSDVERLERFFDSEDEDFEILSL

Phospholipase A2 = Phospholipase A2 (Homo sapiens, UniProt P04054); format: functional;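 also: confirmatory dose-response counterscreen on phospholipase A2, testing hits that came from an ultra-high-throughput screen for ATG4B inhibitors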
Streptokinase A = target: T2, Streptokinase A (Streptococcus pyogenes serotype M1, UniProt P10520); assay: S. pyogenes streptokinase expression inhibitors, potency, dose response, plasminogen activation absorbance, OD405 (AID 1914); format: functional, Streptococcus pyogenes M1 GAS;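 also: secreted streptokinase activity via plasminogen activation per viability signal from cell pellet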
T2 sequence (P10520 whole entry): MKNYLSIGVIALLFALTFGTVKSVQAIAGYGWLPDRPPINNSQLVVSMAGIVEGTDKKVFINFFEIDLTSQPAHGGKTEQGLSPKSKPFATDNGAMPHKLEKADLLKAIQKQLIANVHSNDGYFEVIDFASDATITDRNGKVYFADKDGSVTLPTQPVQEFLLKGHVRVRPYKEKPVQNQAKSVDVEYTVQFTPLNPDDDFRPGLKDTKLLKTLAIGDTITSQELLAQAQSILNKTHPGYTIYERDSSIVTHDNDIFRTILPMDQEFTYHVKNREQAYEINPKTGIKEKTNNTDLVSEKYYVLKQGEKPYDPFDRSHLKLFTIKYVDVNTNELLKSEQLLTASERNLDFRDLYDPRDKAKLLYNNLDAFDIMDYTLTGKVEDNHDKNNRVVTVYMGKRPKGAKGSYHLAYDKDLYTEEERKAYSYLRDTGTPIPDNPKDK

Streptococcus = assay: Group A Streptococcus viability loss, dose response, counter-screen for streptokinase expression inhibitor project, luminescence, BacTiterGlo (AID 1915); format: functional, organism-based;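 also: potency for reduction of bacterial viability or growth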
[2] = target: Dual specificity tyrosine-phosphorylation-regulated kinase 1A (Rattus norvegicus, UniProt Q63470); format: biochemical, Homo sapiens
[3] = target: Cyclin-dependent kinase 5/CDK5 activator 1 (Homo sapiens, UniProt Q00535); assay: CDK5/p35 kinase inhibitors, dose response, biochemical, cherry-picked samples, set 2 (AID 504545)
[4] = target: T3, Calpain-2 catalytic subunit (Sus scrofa, UniProt P43367); assay: pig calpain II inhibitor potency, dose response, biochemical, fluorogenic peptide substrate (AID 1420); format: functional
T3 sequence (P43367 whole entry): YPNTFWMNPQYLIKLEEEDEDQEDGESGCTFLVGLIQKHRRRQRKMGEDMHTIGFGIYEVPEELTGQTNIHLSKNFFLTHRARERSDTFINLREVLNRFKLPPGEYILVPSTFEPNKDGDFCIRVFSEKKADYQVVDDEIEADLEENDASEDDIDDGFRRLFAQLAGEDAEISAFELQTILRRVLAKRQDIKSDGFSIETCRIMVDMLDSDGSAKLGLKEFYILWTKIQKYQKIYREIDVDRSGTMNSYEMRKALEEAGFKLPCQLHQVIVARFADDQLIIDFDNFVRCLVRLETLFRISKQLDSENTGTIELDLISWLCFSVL

Escherichia coli = assay: microbe, parasite or virus in culture
[5] = target: 5-hydroxytryptamine receptor 5A (Homo sapiens, UniProt P47898); assay: Counterscreen for agonists of OPRM1-OPRD1 heterodimerization: luminescence-based cell-based high throughput dose response assay to identify agonists of 5-hydroxytryptamine (serotonin) 5A receptor (HTR5A). [Related pubchem assays (depositor defined):AID504326, AID504355, AID504692, AID504904, AID504905]; format: functional
[6] = target: Delta-type opioid receptor (Homo sapiens, UniProt P41143); assay: Counterscreen for agonists of heterodimerization of the mu 1 (OPRM1) and delta 1 (OPRD1) opioid receptors: Luminescence-based cell-based high throughput dose response assay to identify agonists of OPRD1 homodimerization. [Related pubchem assays (depositor defined):AID504326, AID504355, AID504692, AID504904, AID504905]; format: functional
Mu-type opioid receptor = Mu-type opioid receptor (Homo sapiens, UniProt P35372); assay: Counterscreen for agonists of heterodimerization of the mu 1 (OPRM1) and delta 1 (OPRD1) opioid receptors: Luminescence-based cell-based high throughput dose response assay to identify agonists of OPRM1 homodimerization.; format: functional;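 also: U2OS cells expressing OPRM1 and beta-arrestin as split beta-galactosidase partners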
[7] = target: T4, Carboxy-terminal domain RNA polymerase II polypeptide A small phosphatase 1 (Homo sapiens, UniProt Q9GZU7); assay: inhibitors of CTDSP1, concentration-response testing, biochemical assay, absorbance-based, actives from ultra-high-throughput screening (AID 540297); format: functional
T4 sequence (Q9GZU7 whole entry): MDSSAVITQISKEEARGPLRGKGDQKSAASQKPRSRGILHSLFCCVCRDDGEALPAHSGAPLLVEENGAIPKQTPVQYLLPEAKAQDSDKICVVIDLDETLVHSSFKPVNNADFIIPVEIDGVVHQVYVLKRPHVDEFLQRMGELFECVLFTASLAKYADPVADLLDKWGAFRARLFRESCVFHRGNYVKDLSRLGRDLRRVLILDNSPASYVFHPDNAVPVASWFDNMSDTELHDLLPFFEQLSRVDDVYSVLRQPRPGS

[8] = target: Induced myeloid leukemia cell differentiation protein Mcl-1 (Homo sapiens, UniProt Q07820); format: functional
Beta-galactosidase = Beta-galactosidase (Escherichia coli, UniProt Q8VNN2); assay: PubChem AID 485352; format: functional
[9] = target: Heat shock protein HSP 90-alpha (Homo sapiens, UniProt P07900); format: functional, organism-based
[10] = target: T5, Type-1 angiotensin II receptor (Homo sapiens, UniProt P30556); assay: AT1 receptor antagonists, dose response, selectivity assay for APJ receptor antagonist project, cell-based, uHTS hits (AID 463214); format: functional;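 also: antagonist potency against angiotensin II stimulated AT1 response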
T5 sequence (P30556 whole entry): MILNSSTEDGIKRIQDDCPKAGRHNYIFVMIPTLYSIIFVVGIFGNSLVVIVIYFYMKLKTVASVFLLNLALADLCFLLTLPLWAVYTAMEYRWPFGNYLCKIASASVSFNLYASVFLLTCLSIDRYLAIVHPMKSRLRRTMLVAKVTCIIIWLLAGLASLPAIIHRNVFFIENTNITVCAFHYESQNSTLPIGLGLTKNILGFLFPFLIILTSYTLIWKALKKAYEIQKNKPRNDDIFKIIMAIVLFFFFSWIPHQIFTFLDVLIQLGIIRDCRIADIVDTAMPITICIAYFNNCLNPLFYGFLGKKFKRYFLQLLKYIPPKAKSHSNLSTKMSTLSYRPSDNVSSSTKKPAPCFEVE

[11] = cytotoxicity in HMLE control line with eGFP shRNA, dose response, counter-screen for HMLE_sh_ECad selective toxicity project, cell-based, HMLE_sh_eGFP, luminescence (AID 463074); format: functional, Homo sapiens;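 also: HMLE human mammary epithelial cells expressing control shRNA against eGFP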
[12] = Luminescence Cell-Based Dose Retest to Confirm Inhibitors of Cancer Stem Cells. [Related pubchem assays (depositor defined):AID2717, AID2721]; format: functional; details: Homo sapiens
[13] = target: T6, Alkaline phosphatase, tissue-nonspecific isozyme (Homo sapiens, UniProt P05186); assay: TNAP enzyme inhibition by screening hits, dose response, selectivity assay for mouse IAP inhibitor project, biochemical, human TNAP, uHTS hits (AID 488906); format: functional
T6 sequence (P05186 whole entry): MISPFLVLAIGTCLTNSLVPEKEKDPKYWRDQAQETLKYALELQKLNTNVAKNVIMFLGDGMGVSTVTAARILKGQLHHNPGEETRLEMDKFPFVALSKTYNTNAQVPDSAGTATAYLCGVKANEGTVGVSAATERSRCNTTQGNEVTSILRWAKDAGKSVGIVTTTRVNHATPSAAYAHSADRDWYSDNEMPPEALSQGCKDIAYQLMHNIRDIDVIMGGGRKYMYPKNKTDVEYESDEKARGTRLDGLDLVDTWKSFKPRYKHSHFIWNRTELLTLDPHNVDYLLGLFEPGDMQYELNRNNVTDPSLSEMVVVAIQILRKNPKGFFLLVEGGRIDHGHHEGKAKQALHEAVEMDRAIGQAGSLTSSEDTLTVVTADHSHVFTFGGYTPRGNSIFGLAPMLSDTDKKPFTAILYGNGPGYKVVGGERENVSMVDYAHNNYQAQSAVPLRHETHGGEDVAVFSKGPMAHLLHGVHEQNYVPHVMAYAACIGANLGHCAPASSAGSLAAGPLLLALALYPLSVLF

[14] = target: T7, Intestinal-type alkaline phosphatase (Homo sapiens, UniProt P09923); assay: inhibition of human intestinal alkaline phosphatase – biochemical, dose response (AID 488876); format: functional
[15] = target: Intestinal-type alkaline phosphatase (Mus musculus, UniProt P24822); assay: PubChem AID 488785; format: functional
HEK293 [16] = assay: cells; details: Homo sapiens
[17] = HEp-2 cell cytotoxicity, dose response, cytotoxicity control for RSV inhibitor project, HTS (AID 2410); format: functional; details: human respiratory syncytial virus
HEK293 [18] = assay: cells; details: Homo sapiens; remark: listed apart in the source
[19] = target: T7, Intestinal-type alkaline phosphatase; assay: activation of human intestinal alkaline phosphatase – biochemical, dose response (AID 488873); format: functional
Large T antigen = Large T antigen (Simian virus 40, UniProt P03070); format: functional, Betapolyomavirus macacae;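 also: Confirmatory-stage PubChem screen for compounds that inhibit SV40 T antigen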

Beta-galactosidase, sequence (Q8VNN2 whole entry): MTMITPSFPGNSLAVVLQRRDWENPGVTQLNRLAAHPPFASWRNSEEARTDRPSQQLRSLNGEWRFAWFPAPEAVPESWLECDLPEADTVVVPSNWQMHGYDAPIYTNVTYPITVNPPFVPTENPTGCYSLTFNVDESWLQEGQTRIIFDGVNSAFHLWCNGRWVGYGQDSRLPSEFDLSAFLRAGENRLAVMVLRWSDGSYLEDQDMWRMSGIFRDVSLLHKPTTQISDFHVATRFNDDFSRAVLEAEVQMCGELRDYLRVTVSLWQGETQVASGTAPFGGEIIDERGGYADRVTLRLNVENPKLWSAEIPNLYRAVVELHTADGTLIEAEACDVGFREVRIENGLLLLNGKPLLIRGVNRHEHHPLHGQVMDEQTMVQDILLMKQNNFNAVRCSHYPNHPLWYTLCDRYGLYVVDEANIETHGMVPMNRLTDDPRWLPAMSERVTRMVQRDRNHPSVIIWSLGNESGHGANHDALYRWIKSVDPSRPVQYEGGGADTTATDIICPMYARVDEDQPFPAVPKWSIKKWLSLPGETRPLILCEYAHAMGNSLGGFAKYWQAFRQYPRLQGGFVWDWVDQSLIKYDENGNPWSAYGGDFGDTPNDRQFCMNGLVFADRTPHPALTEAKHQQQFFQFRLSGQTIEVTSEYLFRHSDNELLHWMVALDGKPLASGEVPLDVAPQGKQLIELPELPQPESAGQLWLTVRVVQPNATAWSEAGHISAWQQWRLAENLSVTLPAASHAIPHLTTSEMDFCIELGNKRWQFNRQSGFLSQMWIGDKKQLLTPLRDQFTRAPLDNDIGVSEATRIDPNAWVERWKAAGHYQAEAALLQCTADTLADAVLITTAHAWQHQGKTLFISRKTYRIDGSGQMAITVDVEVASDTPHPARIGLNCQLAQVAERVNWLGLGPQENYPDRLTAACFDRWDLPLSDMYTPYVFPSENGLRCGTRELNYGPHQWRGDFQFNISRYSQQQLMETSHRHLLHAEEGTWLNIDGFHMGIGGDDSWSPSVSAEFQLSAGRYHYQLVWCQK
Phospholipase A2, sequence (P04054 whole entry): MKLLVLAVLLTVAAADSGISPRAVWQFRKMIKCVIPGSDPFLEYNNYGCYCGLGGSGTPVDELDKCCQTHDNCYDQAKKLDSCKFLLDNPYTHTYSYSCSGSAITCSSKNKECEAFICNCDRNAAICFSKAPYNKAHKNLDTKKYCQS
5-hydroxytryptamine receptor 5A, sequence (P47898 whole entry): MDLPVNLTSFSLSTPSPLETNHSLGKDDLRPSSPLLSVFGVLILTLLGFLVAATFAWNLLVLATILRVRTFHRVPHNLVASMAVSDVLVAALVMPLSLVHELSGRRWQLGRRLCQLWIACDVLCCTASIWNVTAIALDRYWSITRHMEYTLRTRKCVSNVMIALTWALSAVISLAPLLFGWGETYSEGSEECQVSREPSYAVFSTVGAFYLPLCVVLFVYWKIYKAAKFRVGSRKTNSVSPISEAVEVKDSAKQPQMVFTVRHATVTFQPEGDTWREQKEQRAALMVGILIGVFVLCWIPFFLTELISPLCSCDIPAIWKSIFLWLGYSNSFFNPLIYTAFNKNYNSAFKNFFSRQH
Intestinal-type alkaline phosphatase (Mus musculus, UniProt P24822), sequence (P24822 whole entry): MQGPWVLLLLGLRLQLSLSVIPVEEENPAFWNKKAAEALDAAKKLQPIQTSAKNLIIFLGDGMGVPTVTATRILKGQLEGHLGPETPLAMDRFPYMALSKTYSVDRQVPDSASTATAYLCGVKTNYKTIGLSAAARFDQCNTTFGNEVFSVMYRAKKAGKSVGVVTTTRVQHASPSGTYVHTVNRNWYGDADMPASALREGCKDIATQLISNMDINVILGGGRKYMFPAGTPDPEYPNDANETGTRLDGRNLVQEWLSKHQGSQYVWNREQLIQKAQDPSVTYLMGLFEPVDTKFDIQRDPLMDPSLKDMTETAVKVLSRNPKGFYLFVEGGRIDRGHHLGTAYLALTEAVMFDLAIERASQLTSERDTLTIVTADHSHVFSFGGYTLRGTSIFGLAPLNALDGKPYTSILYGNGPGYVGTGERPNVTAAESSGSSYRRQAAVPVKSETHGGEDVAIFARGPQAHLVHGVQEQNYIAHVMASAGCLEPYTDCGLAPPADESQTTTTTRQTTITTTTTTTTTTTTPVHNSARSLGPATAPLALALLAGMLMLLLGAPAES
Delta-type opioid receptor, sequence (P41143 whole entry): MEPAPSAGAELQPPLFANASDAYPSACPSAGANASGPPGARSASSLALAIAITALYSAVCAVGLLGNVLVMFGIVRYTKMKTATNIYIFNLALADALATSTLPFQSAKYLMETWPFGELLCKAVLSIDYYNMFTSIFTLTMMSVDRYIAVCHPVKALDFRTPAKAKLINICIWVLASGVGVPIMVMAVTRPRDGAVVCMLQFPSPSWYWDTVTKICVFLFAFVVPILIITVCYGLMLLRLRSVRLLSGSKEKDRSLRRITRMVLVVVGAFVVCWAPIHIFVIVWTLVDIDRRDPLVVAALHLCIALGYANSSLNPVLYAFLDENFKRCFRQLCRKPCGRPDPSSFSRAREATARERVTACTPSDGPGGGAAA
T7 sequence (P09923 whole entry): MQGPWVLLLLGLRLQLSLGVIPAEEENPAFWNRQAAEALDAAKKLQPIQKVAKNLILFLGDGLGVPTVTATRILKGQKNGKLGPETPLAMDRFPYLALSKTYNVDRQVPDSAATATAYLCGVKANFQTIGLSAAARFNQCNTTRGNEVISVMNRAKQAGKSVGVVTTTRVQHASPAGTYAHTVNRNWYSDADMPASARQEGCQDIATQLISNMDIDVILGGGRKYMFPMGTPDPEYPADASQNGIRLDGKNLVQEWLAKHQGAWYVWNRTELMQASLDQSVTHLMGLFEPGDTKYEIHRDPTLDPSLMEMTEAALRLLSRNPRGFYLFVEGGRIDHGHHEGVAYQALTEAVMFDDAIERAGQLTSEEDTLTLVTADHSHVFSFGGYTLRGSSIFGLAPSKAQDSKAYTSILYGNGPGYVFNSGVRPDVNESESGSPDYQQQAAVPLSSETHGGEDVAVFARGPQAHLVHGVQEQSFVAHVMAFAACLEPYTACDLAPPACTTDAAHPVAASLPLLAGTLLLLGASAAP
Mu-type opioid receptor, sequence (P35372 whole entry, the tested form may be a part): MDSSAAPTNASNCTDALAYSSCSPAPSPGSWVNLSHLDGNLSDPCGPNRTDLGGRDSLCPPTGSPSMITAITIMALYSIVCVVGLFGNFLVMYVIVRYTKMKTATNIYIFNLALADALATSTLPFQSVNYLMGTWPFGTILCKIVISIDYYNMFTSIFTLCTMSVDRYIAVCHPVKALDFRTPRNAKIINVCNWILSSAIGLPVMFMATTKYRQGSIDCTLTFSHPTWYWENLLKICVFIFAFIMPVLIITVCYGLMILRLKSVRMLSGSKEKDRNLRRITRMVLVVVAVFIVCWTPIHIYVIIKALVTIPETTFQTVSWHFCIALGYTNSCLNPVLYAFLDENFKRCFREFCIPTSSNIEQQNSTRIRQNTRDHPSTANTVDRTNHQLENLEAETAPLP
Induced myeloid leukemia cell differentiation protein Mcl-1, sequence (Q07820 whole entry): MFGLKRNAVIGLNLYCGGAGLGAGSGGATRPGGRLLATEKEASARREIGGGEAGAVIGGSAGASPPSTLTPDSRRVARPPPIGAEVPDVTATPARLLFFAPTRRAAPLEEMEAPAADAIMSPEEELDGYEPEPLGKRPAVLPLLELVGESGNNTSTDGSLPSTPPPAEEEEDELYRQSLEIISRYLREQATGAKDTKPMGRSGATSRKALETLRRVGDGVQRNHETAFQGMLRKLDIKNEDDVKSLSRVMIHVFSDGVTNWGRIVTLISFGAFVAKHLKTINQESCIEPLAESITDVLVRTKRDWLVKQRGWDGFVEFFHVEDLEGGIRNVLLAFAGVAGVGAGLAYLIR
Cyclin-dependent kinase 5/CDK5 activator 1, sequence (Q00535 whole entry): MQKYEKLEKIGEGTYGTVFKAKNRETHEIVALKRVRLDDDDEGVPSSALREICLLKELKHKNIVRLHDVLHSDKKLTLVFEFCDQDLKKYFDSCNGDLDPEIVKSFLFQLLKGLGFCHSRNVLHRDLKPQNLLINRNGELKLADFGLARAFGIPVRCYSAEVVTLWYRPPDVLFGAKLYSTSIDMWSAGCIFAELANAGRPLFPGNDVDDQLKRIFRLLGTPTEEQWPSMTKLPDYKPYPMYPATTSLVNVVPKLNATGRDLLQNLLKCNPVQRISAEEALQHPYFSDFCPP
Cyclin-dependent kinase 5/CDK5 activator 1, sequence (Q15078 whole entry, further chain): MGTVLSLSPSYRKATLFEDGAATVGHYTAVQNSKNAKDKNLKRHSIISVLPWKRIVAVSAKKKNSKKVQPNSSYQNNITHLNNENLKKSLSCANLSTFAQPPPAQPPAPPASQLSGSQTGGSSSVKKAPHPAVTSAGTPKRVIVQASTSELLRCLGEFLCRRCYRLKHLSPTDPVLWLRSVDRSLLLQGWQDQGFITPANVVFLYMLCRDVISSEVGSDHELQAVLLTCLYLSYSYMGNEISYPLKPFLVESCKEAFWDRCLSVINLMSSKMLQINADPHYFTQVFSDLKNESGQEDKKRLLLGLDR

## CCc1nn(CCCC(=O)NCc2ccccc2Br)c(=O)c2cc3occc3n12
[1]
  EC50: 1.12 µM (active)
Cysteine protease ATG4B
  IC50: 16.8 µM (active)
Phospholipase A2
  IC50: 20 µM (inactive)
Streptokinase A
  EC50: > 150 µM (not active)
Streptococcus
  EC50: > 150 µM (not active)

## N#Cc1c(NC(=O)C2CC(c3ccccc3Cl)=NO2)sc2c1CCC2 (stereo not given)
Cysteine protease ATG4B
  IC50: 4.36 µM (active)
Phospholipase A2
  IC50: 3.48 µM (active)

## COc1ccc2nc3c(cc2c1)c(NC(=O)c1cccs1)nn3CC(C)C
[2]
  AC50: 0.43 µM (active)
[3]
  AC50: 4.21 µM (active)

## CCOc1ccc(C2=CS/C(=C(\C#N)c3nnc4n3CCCCC4)N2CC)cc1
Cysteine protease ATG4B
  IC50: 13 µM (active)
Phospholipase A2
  IC50: 8.21 µM (active)

## CCCN(Cc1ccccc1)C(S)=Nc1ccc(SC(F)F)cc1
[4]
  IC50: 18.1 µM (not active)
Escherichia coli
  AC50: 41.9 µM (active)

## O=C(Nc1cccc(-c2nn[nH]n2)c1)c1ccc(Cl)s1
[2]
  AC50: 1.44 µM (active)

## COc1cccc(C(=O)Nc2ccc3c(c2)C(=O)c2ccccc2C3=O)c1
[5]
  EC50: > 92.5 µM (inactive)
[6]
  EC50: > 92.5 µM (inactive)
Mu-type opioid receptor
  EC50: > 92.5 µM (inactive)
[7]
  IC50: 6.16 µM (active)
[8]
  IC50: 1.82 µM (active)

## O=C1OCC(CO)(CO)N=C1NNc1ccc(Cl)c(Cl)c1
Beta-galactosidase
  EC50: > 40 µM (inactive)
[9]
  AC50: 2.31 µM (active)
[10]
  IC50: 16.6 µM (active)

## COc1cc(/C=C2\SC(=S)N(N3CCOCC3)C2=O)ccc1O
Beta-galactosidase
  EC50: > 40 µM (inactive)
[10]
  IC50: > 40 µM (not active)

## COc1ccc(NC(=O)/C(C#N)=C\C=C\c2ccco2)cc1
[11]
  AC50: 23.1 µM (active)
[12]
  AC50: 1.36 µM (active)

## CCN(c1ccccc1)S(=O)(=O)c1ccc2[nH]c(=O)[nH]c2c1
[13]
  IC50: 24.9 µM (active)
[14]
  IC50: 33.8 µM (active)
[15]
  IC50: 3.89 µM (active)

## Cc1ccc(C(=O)COC(=O)c2cnccn2)cc1[N+](=O)[O-]
Beta-galactosidase
  EC50: > 40 µM (inactive)
[10]
  IC50: 38.5 µM (not active)

## CC[C@@]12C(=O)N(c3cccc(Br)c3)C(=O)N1[C@H](c1ccc(Cl)cc1)[C@@H]1C(=O)N(C3CCCCC3)C(=O)[C@@H]12
HEK293 [16]
  EC50: > 59.6 µM (inactive)
[17]
  CC50: > 50 µM (active)
HEK293 [18]
  EC50: > 59.6 µM (inactive)

## COC(=O)C1=CO[C@@H](C)[C@@H]2CN(CCc3c[nH]c4ccccc34)CC[C@H]12
[5]
  EC50: > 92.4 µM (inactive)
[6]
  EC50: > 92.4 µM (inactive)
Mu-type opioid receptor
  EC50: > 92.4 µM (inactive)

## Fc1ccc(N/N=C/c2ccncc2)c(F)c1
[11]
  AC50: 102 µM (active)
[12]
  AC50: 43.7 µM (active)

## O=c1oc2cc(O)ccc2s1 [TIOXOLONE]
[19]
  EC50: 8.33 µM (active)
[13]
  IC50: > 100 µM (inactive)
HEK293 [16]
  EC50: > 59.6 µM (inactive)
[15]
  IC50: 2.59 µM (active)
HEK293 [18]
  EC50: > 59.6 µM (inactive)
Large T antigen
  IC50: 19 µM (active)
